From patent US10844049B2, “GLP-1R agonists and uses thereof” (QILU REGOR THERAPEUTICS INC., priority 2018, dated 2020)

How the values were obtained:
Format in all cases: cell-based
GLP1R [1] = target: T1, GLP1R (Homo sapiens, UniProt P43220); experiment: GLP1R cAMP HTRF assay, HEK293/GLP-1R/CRE/Luc (HEK293T cells); conditions: read-out: EC50
Procedure, shortened: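 cAMP accumulation via HTRF after 30 min, 37 °C exposure of 1000 receptor-expressing cells/well to compound (0.5% DMSO final) in IBMX (500 μM)/0.1% BSA DPBS.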

GLP1R [2] = target: T1, GLP1R; experiment: GLP1R cAMP assay, CHO cells stably expressing human GLP-1R; conditions: CHO cells stably expressing GLP-1R, read-out: CHO cAMP stable EC50
Method: GLP-1R-mediated agonist activity was determined with a cell-based functional assay utilizing an HTRF (Homogeneous Time-Resolved Fluorescence) cAMP detection kit (cAMP Dynamic 2 Assay Kit; CisBio cat #62AM4PEC) that measures cAMP levels in the cell. The method is a competitive immunoassay between native cAMP produced by the cells and exogenous cAMP labeled with the dye d2. The tracer binding is visualized by a mAb anti-cAMP labeled with Cryptate. The specific signal (i.e., energy transfer) is inversely proportional to the concentration of cAMP in either standard or experimental sample.
Varying concentrations of each compound to be tested (in DMSO) were diluted in DMSO to obtain 200× compound working solution first and then 50 nl compounds were added to a white 384-well assay plate (Greiner 784075) with ECHO. The final DMSO concentration was 0.5%. The compound concentration range may be adjusted at any time.
Cells were removed from cryopreservation, re-suspended in 5 mL of Dulbecco's Phosphate Buffered Saline (DPBS-Sigma Cat # D8537) and centrifuged at 900 g for 5 min at 22° C. The cell pellet was then re-suspended in 1 mL of assay buffer [DPBS with 500 μM IBMX (Sigma #15879) and 0.1% BSA (Sigma # A1933). IBMX and BSA were freshly added on the day of assay]. A 10 μL sample of the cell suspension was counted on an Invitrogen Countess II to determine cell viability and cell count per mL. The remaining cell suspension was then adjusted with assay buffer to deliver 1000 viable cells per well using a Matrix Combi Multidrop reagent dispenser. 10 μL cell suspensions were added to each well of the assay plate which already contains compound. The plate was sealed and incubated at 37° C. with 5% CO2 for 30 minutes.
Following the 30 minute incubation, 5 μL of labeled d2 cAMP and 5 μL of anti-cAMP antibody (both diluted 1:20 in cell lysis buffer; as described in the manufacturer's assay protocol) were added to each well of the assay plate. The plates w ere then incubated at room temperature and after 60 minutes, changes in the HTRF signal were read with an Envision multi-label plate reader using excitation of 330 nm and emissions of 615 and 665 nm. Raw data were converted to nM cAMP by interpolation from a cAMP standard curve (as described in the manufacturer's assay protocol) and the percent effect was determined relative to a saturating concentration of the full agonist GLP-17-37 (10 nM) included on each plate. EC50 determinations were made from agonist dose-response curves analyzed with a curve fitting program using a 4-parameter logistic dose response equation. […]

GLP1R [3] = target: T1, GLP1R; experiment: β-Arrestin-mediated GLP1R internalization assay (PathHunter engineered U2OS cells); set-up: host or cells: PathHunter engineered U2OS cells; conditions: averaged Bmax, percentage of control GLP-1 (7-37), highest concentration tested
Excerpt: A similar assay can also be used to assess the extent of signal attenuation due to GLP-1R internalization (the β-Arrestin Internalization Assay). In this assay, activated GLP1R Internalization cells were engineered to co-express an untagged GLP1R, Enzyme Acceptor (EA) tagged β-Arrestin, and a ProLink™ (PK) tag localized to the endosomes. Activation of the GLP1R induces β-Arrestin recruitment, which leads to internalization of the Receptor/Arrestin-EA complex in PK-tagged endosomes. This forces complementation of the two β-galactosidase enzyme fragments (EA and PK) to form a functional enzyme that hydrolyzes substrate to generate a chemiluminescent signal. These cells have been modified to prevent long term propagation and expansion using a proprietary compound that has no apparent effect on assay performance.
Specifically, PathHunter engineered U2OS cells from the assay kit (Cat #93-0724E3CP0L) were plated at a density of 2000 cells/20 μL/well in a 384-well white/clear bottom plates (Greiner Cat #781098). Frozen cells were quickly thawed and 10 mL of cell plating medium (provided by the kit) was added to thawed cells. Cells were stored in a 37° C. incubator and kept for approximately 48 hours until ready for the assay.
Reference and test compounds were dissolved in 100% DMSO. 5× concentration of an agonist was prepared in serum free DMEM (Thermo Cat #11965). 5 μL of this solution was added to 20 μL cell medium in assay plate for a final top concentration of 10 μM. Plates were incubated at 37° C. for 180 min.
Following 180 min incubation, detection reagents were made up by combining 1 part Galacton Star Substrate with 5 parts Emerald II™ Solution, and 19 parts of PathHunter Cell Assay Buffer, respectively. 12.5 μL detection reagent was added to each well. The plates were then incubated at room temperature for 60 min. Plates were then read on Envision for 0.1 sec/well.
EC50 determinations were made from agonist dose-response curves analyzed with a curve fitting program using a 4-parameter logistic dose response equation.

T1 sequence (P43220 24-463): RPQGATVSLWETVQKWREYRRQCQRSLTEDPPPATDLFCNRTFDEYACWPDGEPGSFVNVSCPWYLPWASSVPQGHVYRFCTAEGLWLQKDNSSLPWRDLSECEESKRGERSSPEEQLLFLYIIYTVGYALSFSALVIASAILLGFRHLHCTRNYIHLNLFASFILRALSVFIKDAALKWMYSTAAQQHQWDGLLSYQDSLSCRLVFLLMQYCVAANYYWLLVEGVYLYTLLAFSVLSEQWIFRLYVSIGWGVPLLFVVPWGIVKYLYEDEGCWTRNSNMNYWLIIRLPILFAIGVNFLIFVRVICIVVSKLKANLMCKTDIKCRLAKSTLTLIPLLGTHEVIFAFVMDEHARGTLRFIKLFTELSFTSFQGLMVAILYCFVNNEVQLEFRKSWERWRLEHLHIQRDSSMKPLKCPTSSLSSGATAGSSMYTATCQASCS

EC50 (GLP1R [1]) | EC50 (GLP1R [2]) | Bmax (POC) (GLP1R [3]) | SMILES
≤ 15 nM | ≤ 150 nM | 8.88 ± 3.19 POC | O=C(O)c1ccc2nc(CN3CC=C(c4cncc(OCc5ccc(Cl)cc5F)n4)CC3)n(C[C@@H]3CCO3)c2c1 [Compound 34, (S)-2-((4-(6-(4-chloro-2-fluorobenzyloxy)pyrazin-2-yl)-5,6-dihydropyridin-1(2H)-yl)methyl)-1-(oxetan-2-ylmethyl)-1 h-benzo[d]imidazole-6-carboxylic acid]
≤ 15 nM | ≤ 150 nM | 22.5 ± 1.41 POC | O=C(O)c1ccc2nc(CN3CC=C(c4cccc(OCc5ccc(Cl)cc5F)c4)CC3)n(C[C@@H]3CCO3)c2n1 [Compound 224, (S)-2-((4-(3-((4-chloro-2-fluorobenzyl)oxy)phenyl)-3,6-dihydropyridin-1(2H)-yl)methyl)-3-(oxetan-2-ylmethyl)-3H-imidazo[4,5-b]pyridine-5-carboxylic acid]
≤ 15 nM | ≤ 15 nM | 30.0 ± 6.40 POC | O=C(O)c1ccc2nc(CN3CC=C(c4cccc(OCc5ccc(Cl)cc5F)n4)CC3)n(C[C@@H]3CCO3)c2c1 [Compound 221, (S)-2-((6-((4-chloro-2-fluorobenzyl)oxy)-3′,6′-dihydro-[2,4′-bipyridin]-1′(2′H)-yl)methyl)-1-(oxetan-2-ylmethyl)-1H-benzo[d]imidazole-6-carboxylic acid]
≤ 15 nM | ≤ 150 nM | 14.1 ± 1.57 POC | O=C(O)c1ccc2nc(CN3CCC(c4cccc(OCc5ccc(Cl)cc5F)c4)CC3)n(C[C@@H]3CCO3)c2c1 [Compound 239, (S)-2-((4-(3-((4-chloro-2-fluorobenzyl)oxy)phenyl)piperidin-1-yl)methyl)-1-(oxetan-2-ylmethyl)-1H-benzo[d]imidazole-6-carboxylic acid]
≤ 15 nM | ≤ 150 nM | 30.0 POC | O=C(O)c1ccc2nc(CN3CC=C(c4ccc(F)c(OCc5ccc(Cl)cc5F)c4)CC3)n(C[C@@H]3CCO3)c2n1 [Compound 236, (S)-2-((4-(3-((4-chloro-2-fluorobenzyl)oxy)-4-fluorophenyl)-5,6-dihydropyridin-1(2H)-yl)methyl)-3-(oxetan-2-ylmethyl)-3H-imidazo[4,5-b]pyridine-5-carboxylic acid]
≤ 15 nM | ≤ 15 nM | 31.4 ± 2.62 POC | N#Cc1ccc(COc2nc(C3=CCN(Cc4nc5ccc(C(=O)O)cc5n4C[C@@H]4CCO4)CC3)ccc2F)c(F)c1 [Compound 222, (S)-2-((6-((4-cyano-2-fluorobenzyl)oxy)-5-fluoro-3′,6′-dihydro-[2,4′-bipyridin]-1′(2′H)-yl)methyl)-1-(oxetan-2-ylmethyl)-1H-benzo[d]imidazole-6-carboxylic acid]
≤ 15 nM | ≤ 150 nM | 52.8 ± 1.14 POC | O=C(O)c1ccc2nc(CN3CC=C(c4ccc(F)c(OCc5ccc(Cl)cc5F)c4)CC3)n(C[C@@H]3CCO3)c2c1F [Compound 238, (S)-2-((4-(3-((4-chloro-2-fluorobenzyl)oxy)-4-fluorophenyl)-3,6-dihydropyridin-1(2H)-yl)methyl)-7-fluoro-1-(oxetan-2-ylmethyl)-1H-benzo[d]imidazole-6-carboxylic acid]
≤ 15 nM | – | 15.4 POC | O=C(O)c1ccc2nc(CN3CC=C(c4cccc(OCc5ccc(-c6cccnc6)cc5)n4)CC3)n(C[C@@H]3CCO3)c2c1 [Compound 242, (S)-1-(oxetan-2-ylmethyl)-2-((6-((4-(pyridin-3-yl)benzyl)oxy)-3′,6′-dihydro-[2,4′-bipyridin]-1′(2′H)-yl)methyl)-1H-benzo[d]imidazole-6-carboxylic add]

Second part, the molecule before the results:

SMILES | EC50 (GLP1R [1]) | EC50 (GLP1R [2]) | Bmax (POC) (GLP1R [3])
N#Cc1ccc(COc2cccc(C3=CCN(Cc4nc5ccc(C(=O)O)cc5n4C[C@@H]4CCO4)CC3)n2)c(F)c1 [Compound 19, (S)-2-((4-(6-(4-cyano-2-fluorobenzyloxy)pyridin-2-yl)-5,6-dihydropyridin-1(2H)-yl)methyl)-1-(oxetan-2-ylmethyl)-1 h-benzo[d]imidazole-6-carboxylic add] | ≤ 15 nM | ≤ 15 nM | 20.1 POC
N#Cc1ccc(COc2cncc(C3=CCN(Cc4nc5ccc(C(=O)O)cc5n4C[C@@H]4CCO4)CC3)n2)c(F)c1 [Compound 23, (S)-2-((4-(6-(4-cyano-2-fluorobenzyloxy)pyrazin-2-yl)-5,6-dihydropyridin-1(2H)-yl)methyl)-1-(oxetan-2-ylmethyl)-1 h-benzo[d]imidazole-6-carboxylic acid] | ≤ 15 nM | ≤ 1000 nM | 8.92 ± 3.70 POC
O=C(O)c1ccc2nc(CN3CC=C(c4cccc(OCc5ccc(Cl)cc5F)c4)CC3)n(C[C@@H]3CCO3)c2c1 [Compound 28, (S)-2-((4-(3-((4-chloro-2-fluorobenzyl)oxy)phenyl)-3,6-dihydropyridin-1(2H)-yl)methyl)-1-(oxetan-2-ylmethyl)-1 h-benzo[d]imidazole-6-carboxylic add] | ≤ 15 nM | ≤ 150 nM | 17.6 ± 6.62 POC
O=C(O)c1ccc2nc(CN3CCC(c4cncc(OCc5ccc(Cl)cc5F)n4)CC3)n(C[C@@H]3CCO3)c2c1 [Compound 21, (S)-2-((4-(6-(4-chloro-2-fluorobenzyloxy)pyrazin-2-yl)piperidin-1-yl)methyl)-1-(oxetan-2-ylmethyl)-1 h-benzo[d]imidazole-6-carboxylic acid] | ≤ 15 nM | ≤ 1000 nM | 6.64 ± 1.55 POC
N#Cc1ccc(COc2cncc(C3CCN(Cc4nc5ccc(C(=O)O)cc5n4C[C@@H]4CCO4)CC3)n2)c(F)c1 [Compound 22, (S)-2-((4-(6-(4-cyano-2-fluorobenzyloxy)pyrazin-2-yl)piperidin-1-yl)methyl)-1-(oxetan-2-ylmethyl)-1 h-benzo[d]imidazole-6-carboxylic acid] | ≤ 150 nM | ≤ 1000 nM | 7.40 ± 6.97 POC
O=C(O)c1ccc2nc(CN3CC=C(c4ccc(F)c(OCc5ccc(Cl)cc5F)c4)CC3)n(C[C@@H]3CCO3)c2c1 [Compound 29, (S)-2-((4-(3-((4-chloro-2-fluorobenzyl)oxy)-4-fluorophenyl)-3,6-dihydropyridin-1(2H)-yl)methyl)-1-(oxetan-2-ylmethyl)-1 h-benzo[d]imidazole-6-carboxylic acid] | ≤ 15 nM | ≤ 150 nM | 25.9 ± 1.24 POC
O=C(O)c1ccc2nc(CN3CCC(c4ccnc(OCc5ccc(Cl)cc5F)n4)CC3)n(C[C@@H]3CCO3)c2c1 [Compound 18, (S)-2-((4-(2-((4-chloro-2-fluorobenzyl)oxy)pyrimidin-4-yl)piperidin-1-yl)methyl)-1-(oxetan-2-ylmethyl)-1H-benzo[d]imidazole-6-carboxylic acid] | ≤ 15 nM | ≤ 150 nM | 21.3 ± 3.47 POC
